Experimental data as given in paper PMC13316043, “Structural basis of NSD2 degradation via targeted recruitment of SCF-FBXO22” (Nature Communications, 2026).

Target: T1, NSD2 (U2OS NSD2-HiBiT cells) (Homo sapiens, UniProt O96028)
T1 construct: RNPs were introduced into U2OS cells by electroporation; endogenous in cells; host or cells: U2OS NSD2-HiBiT clone P112 (CRISPR knock-in)
T1 sequence (O96028 1-1365): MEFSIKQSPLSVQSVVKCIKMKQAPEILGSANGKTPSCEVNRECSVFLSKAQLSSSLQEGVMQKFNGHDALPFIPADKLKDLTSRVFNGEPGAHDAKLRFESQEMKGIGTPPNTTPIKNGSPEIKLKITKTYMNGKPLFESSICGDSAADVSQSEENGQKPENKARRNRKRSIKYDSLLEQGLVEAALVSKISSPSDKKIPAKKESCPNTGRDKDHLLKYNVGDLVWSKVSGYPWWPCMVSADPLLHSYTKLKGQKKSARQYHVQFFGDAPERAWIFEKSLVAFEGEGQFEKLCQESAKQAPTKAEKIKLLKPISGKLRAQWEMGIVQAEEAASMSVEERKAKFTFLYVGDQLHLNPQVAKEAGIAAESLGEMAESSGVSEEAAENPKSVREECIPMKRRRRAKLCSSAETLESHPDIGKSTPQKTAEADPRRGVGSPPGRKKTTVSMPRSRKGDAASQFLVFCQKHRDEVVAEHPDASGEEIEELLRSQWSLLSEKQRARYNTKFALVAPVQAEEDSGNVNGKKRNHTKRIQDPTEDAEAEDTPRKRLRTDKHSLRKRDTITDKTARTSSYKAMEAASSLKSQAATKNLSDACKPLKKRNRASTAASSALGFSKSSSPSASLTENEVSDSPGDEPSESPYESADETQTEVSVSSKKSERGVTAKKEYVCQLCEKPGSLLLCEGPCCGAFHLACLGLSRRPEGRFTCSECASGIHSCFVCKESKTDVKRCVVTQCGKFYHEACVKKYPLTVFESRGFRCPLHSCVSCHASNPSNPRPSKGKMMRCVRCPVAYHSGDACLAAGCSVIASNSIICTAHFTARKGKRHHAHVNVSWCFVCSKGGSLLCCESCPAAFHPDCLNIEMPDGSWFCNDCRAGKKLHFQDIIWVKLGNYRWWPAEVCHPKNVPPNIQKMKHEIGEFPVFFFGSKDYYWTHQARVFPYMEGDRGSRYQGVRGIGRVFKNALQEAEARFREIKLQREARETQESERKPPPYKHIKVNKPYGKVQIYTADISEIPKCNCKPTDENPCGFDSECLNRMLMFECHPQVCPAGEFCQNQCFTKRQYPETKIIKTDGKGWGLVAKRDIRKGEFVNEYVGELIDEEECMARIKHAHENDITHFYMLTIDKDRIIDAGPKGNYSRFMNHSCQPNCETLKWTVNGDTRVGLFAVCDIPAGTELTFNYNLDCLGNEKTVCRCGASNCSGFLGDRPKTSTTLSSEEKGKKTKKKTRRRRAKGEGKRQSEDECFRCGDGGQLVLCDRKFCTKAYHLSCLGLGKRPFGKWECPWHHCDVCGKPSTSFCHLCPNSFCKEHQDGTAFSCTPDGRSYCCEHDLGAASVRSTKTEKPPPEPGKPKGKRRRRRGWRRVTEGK
Test: NSD2 HiBiT degradation assay
Assay type: cell-based
Details: for NSD2 Remaining (%) / reduction of NSD2 levels: U2OS NSD2-HiBit cells, 1 µM, 6 h; for DC50: dose-response, read-out: DC50 (concentration at which 50% of NSD2 is degraded)
Source text: The NSD2 genomic sequence was obtained from the UCSC genome browser and used to design sgRNAs to introduce HiBiT tags at either the 5’ or 3’ ends of the gene. sgRNA were assembled into RNPs using TrueCut Cas9 Protein v2 (Invitrogen, Cat#A36497), an sgRNA crRNA:tracrRNA duplex (below; IDT) and ssODN (below; IDT). RNPs were introduced into U2OS cells by electroporation using a Neon XT electroporation system (1750 V, 10 ms, 3 pulses) in R-buffer, using Thermo Fisher Neon transfection kit (Cat# MPK1025K) and according to the manufacturer's protocol. After plating for recovery for four days, single cell clones limited dilution cloning. Single cell clones that grew out were identified as containing integrated HiBiT tags on NSD2 by performing HiBiT assays using HiBiT lytic assay (Promega: N3040) and read on a plate reader. Clones were further confirmed by PCR analysis.
To test compounds for NSD2 degradation, a compound plate was prepared by diluting compounds in DMSO into cell media in a 384-deep-well plate (Revvity). Then, 6 µL of the diluted compounds were transferred into the well of the 384-well assay plate (Corning). 24 µL of the NSD2 HiBiT U2OS P112 cells or parental U2OS cells (3000 cells/well) were added to each well to make a final volume of 30 µL with a 0.1% final DMSO concentration. For multiple time points, multiple assay plates were made and incubated in the incubator at 37 °C in 5% CO2 for 3/6/12/24/48 hrs. 10 min before the reading, the assay plate and the Nano-Glo HiBiT Lytic Detection System (Promega) were brought to room temperature. The HiBiT lytic reagent master mix was prepared according to the product instructions and added to the assay plate. The plate was then incubated on an orbital shaker for 5 min at room temperature, equilibrated for 10 min, and then read using the GloMax luminometer (Promega) for luminescence detection. Compound treatment was normalized to the DMSO control with the background subtraction using the parental U2OS cell line as the background control, plated alongside the HiBiT U2OS P112 cells. The data and graphs were then analyzed and generated using GraphPad Prism (v 10.4.1). DC50 and Dmax were calculated by fitting the data to a non-linear regression curve.

| fold more potent (DC50) than UNC8732 (U2OS NSD2 HiBit cells) | fold more potent (DC50) than UNC10415667 (U2OS NSD2 HiBit cells) | SMILES | NSD2 Remaining (%) | reduction of NSD2 levels | DC50 (U2OS NSD2 HiBit cells) [nM] | fold more potent (DC50) than UNC8732 and UNC10088 (U2OS NSD2 HiBit cells) |
| --- | --- | --- | --- | --- | --- | --- |
| ~ 10 fold | ~ 4 fold | Cc1cc(C=O)ccc1C(=O)N1CCc2cc(NC(=O)c3ccc(CN(C(=O)c4ccc5c(c4)OCC(=O)N5)C4CC4)cc3)ccc2C1 [UNC12149] | 7.4 | greater than 90% | 120 | – |
| – | – | O=Cc1ccc(C(=O)N2CCc3cc(NC(=O)c4ccc(CN(C(=O)c5ccc6c(c5)OCC(=O)N6)C5CC5)cc4)ccc3C2)cc1 [UNC10415667] | 20 | about 75% | 460 | about 2 fold |
